Measured values: US8697145B2, “Substances having body mass redistribution properties” (Horizon Science Pty. Ltd., priority 2005, dated 2014)

Columns and labels:
Sprague Dawley rats = assay: Body mass distribution of rats on high fat diet with tea treatments (DEXA); format: in vivo; conditions: at 11 and 18 weeks, vs water control
Text: Animals and treatments: Male Sprague Dawley rats (n=48) were purchased from the Animal Resource Centre (Canning Vale, WA) at 3 weeks of age. Animals were allowed to acclimate for 1 week on Purina rat chow and water. From 4 weeks of age, all animals were provided with a semi-synthetic, high fat diet (15% fat, Table 6) (Specialty Feeds, Glen Forrest, WA) and administered one of four fluid treatments: Green Tea, Black Tea, Epigallocatechin Gallate (EGCG) or water. Tea and tea extracts were given as 100% of their fluid intake. Rats were maintained on the high fat diet and tea treatment until week 29. Food and fluid intakes were measured daily and body weights recorded weekly.
Green and Black tea: Green and Black tea bags (Dilmah Natural Green Tea™ and Dilmah Black Tea™) were purchased from a local retail outlet. Ten tea bags (approximately 2 g tea leaves/bag) were steeped in 1 liter of boiling tap water in a covered container for 3 minutes. Tea bags were then expelled of excess tea and the tea preparations made up to a 2 liter volume with cold tap water. This approximated to 1 tea bag per 200 ml of water. […]
Dual Energy X-ray Absorptiometry (DEXA): Body composition was determined by dual energy x-ray absorptiometry using a Hologic QDR-4000/W Absorptiometer. […] Fat, lean and total mass was measured, along with the percentage fat ratio and bone mineral content. […]

rats = conditions: treated rats (Zorad et al. 1995); cited from earlier work
α-glucosidase = assay: α-Glucosidase inhibition assay; format: biochemical
Procedure: α-Glucosidase: Molasses powder sample was solubilized in water prior to use in this assay. Fucoidan was included as a positive control, and was also solubilized in water.
Glucosidase enzyme was solubilized in acetate buffer (50 mM, pH 4.5) at a concentration of 0.7 mg/mL. This provided a final concentration of 0.2 U/mL. To a 96-well plate, 50 μL of enzyme was added to each well. A corresponding set of wells was also included, in which acetate buffer was added instead of enzyme. Sample/controls were then added to the wells (5 μL), in triplicate, followed by the substrate 4-Nitrophenyl-α-D-glucopyranoside (final concentration 2 mM). The plate was covered, shaken and then incubated at 37° C. for 30 minutes. The reaction was stopped with the addition of 0.2 M Na2CO3 (100 μL/well). Absorbance was measured at 405 nm, using a Victor^2 plate reader.
The absorbance of the wells containing sample, substrate, and buffer were subtracted from the corresponding wells containing the glucosidase enzyme and the percent inhibition by the samples was calculated compared to the solvent controls.

O=C(O[C@@H]1Cc2c(O)cc(O)cc2O[C@@H]1c1cc(O)c(O)c(O)c1)c1cc(O)c(O)c(O)c1 [EGCG, (−)-epigallocatechin-3-gallate]
grams of lean mass (Sprague Dawley rats): significantly higher

CCCCc1nc(Cl)c(CO)n1Cc1ccc(-c2ccccc2-c2nn[nH]n2)cc1 [losartan]
adipocyte size (rats): reduction

Fucoidan
IC50 (α-glucosidase) (α-glucosidase): 14 µg/mL | % Inhibition of α-glucosidase (α-glucosidase; 4.7 μg/mL): 5.7 ± 3.1% | % Inhibition of α-glucosidase (α-glucosidase; 9.4 μg/mL): 19.3 ± 2.7% | % Inhibition of α-glucosidase (α-glucosidase; 18.8 μg/mL): 73.5 ± 7.5% | % Inhibition of α-glucosidase (α-glucosidase; 37.5 μg/mL): 97.4 ± 5.9%
